Article PMC11808136, “Screening and identification of host signaling pathways for alleviating influenza-induced production of pro-inflammatory cytokines, IP-10, IL-8, and MCP-1, using a U937 cell-based influenza model” (Frontiers in Microbiology, 2025)
Structures can show the parent of a compound that is named as a salt. Where two headings read alike, the source gives them in different places.

Experiments:
[1] = tested on: IP-10 production in influenza virus-infected U937 cells (H1N1); experiment: cells; type: cell-based
[2] = tested on: MCP-1 production in influenza virus-infected U937 cells (H1N1); experiment: cells; type: cell-based; details: for IC50: U-937, read-out: IC50 MCP-1
[3] = in vitro; details: human
[4] = tested on: IL-8 production in influenza virus-infected U937 cells (H1N1); experiment: cells; type: cell-based, Human; details: for IC50: U-937
[5] = tested on: U937 cells
[6] = molecular target: T1, JAK2 (Homo sapiens, UniProt O60674); experiment: Cell-free kinase activity assay, JAK2; type: biochemical
T1 construct: purchased KinaseProfiler (Eurofin, Brussels, Belgium)

[7] = molecular target: JAK1 (Homo sapiens, UniProt P23458); experiment: Cell-free kinase activity assay, JAK1
[8] = molecular target: p38 (Homo sapiens, UniProt Q16539); experiment: Cell-free kinase activity assay, p38; type: biochemical; details: p38 kinases in vitro
[9] = Homo sapiens, U-937, secondary screen, Supplemental Table 1, read-out: EC50 IP-10
[10] = Homo sapiens, U-937, secondary screen, Supplemental Table 1, read-out: EC50 MCP-1
[11] = CC50, secondary screen, Supplemental Table 1
[12] = secondary screen, Supplemental Table 1, read-out: EC50 IL-8
[13] = secondary screen, Supplemental Table 1, read-out: EC50 IP-10
[14] = secondary screen, Supplemental Table 1, read-out: EC50 MCP-1
[15] = secondary screen, Supplemental Table 1
[16] = Homo sapiens, U-937, secondary screen, Supplemental Table 1, read-out: EC50 IL-8
[17] = Homo sapiens, U-937, read-out: EC50 IP-10
[18] = Homo sapiens, U-937, read-out: EC50 MCP-1
[19] = Homo sapiens, U-937, read-out: EC50 IL-8

T1 sequence (O60674 whole entry): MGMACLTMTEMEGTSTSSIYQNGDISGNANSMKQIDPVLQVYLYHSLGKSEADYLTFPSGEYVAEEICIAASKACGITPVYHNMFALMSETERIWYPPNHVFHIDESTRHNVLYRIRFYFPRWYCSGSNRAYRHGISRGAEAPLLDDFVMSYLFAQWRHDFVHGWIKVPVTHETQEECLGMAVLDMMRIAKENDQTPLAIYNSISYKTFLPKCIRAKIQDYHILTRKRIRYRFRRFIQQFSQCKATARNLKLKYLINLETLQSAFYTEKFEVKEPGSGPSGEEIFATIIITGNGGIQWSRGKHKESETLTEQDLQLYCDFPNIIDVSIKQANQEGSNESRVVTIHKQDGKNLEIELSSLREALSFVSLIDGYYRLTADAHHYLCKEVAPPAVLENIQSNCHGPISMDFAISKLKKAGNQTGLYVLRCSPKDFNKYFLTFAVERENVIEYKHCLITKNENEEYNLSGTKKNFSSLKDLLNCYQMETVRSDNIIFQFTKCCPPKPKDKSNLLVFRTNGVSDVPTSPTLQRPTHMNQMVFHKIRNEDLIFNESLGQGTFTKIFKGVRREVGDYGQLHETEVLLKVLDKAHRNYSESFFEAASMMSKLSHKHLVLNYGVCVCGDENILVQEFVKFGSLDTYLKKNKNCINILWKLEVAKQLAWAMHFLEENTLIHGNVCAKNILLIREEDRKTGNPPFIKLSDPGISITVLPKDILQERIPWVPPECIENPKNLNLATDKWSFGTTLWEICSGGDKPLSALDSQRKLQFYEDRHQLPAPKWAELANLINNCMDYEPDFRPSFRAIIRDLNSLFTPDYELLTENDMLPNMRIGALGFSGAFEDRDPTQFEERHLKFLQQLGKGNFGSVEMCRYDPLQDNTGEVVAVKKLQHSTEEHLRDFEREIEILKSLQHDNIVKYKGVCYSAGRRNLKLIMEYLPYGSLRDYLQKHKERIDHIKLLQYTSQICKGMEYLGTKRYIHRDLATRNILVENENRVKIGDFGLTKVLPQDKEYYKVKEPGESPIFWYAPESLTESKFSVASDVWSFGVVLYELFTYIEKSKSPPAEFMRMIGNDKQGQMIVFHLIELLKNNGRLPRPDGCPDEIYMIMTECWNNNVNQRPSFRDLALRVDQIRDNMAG
Sequence of JAK1 (P23458 whole entry): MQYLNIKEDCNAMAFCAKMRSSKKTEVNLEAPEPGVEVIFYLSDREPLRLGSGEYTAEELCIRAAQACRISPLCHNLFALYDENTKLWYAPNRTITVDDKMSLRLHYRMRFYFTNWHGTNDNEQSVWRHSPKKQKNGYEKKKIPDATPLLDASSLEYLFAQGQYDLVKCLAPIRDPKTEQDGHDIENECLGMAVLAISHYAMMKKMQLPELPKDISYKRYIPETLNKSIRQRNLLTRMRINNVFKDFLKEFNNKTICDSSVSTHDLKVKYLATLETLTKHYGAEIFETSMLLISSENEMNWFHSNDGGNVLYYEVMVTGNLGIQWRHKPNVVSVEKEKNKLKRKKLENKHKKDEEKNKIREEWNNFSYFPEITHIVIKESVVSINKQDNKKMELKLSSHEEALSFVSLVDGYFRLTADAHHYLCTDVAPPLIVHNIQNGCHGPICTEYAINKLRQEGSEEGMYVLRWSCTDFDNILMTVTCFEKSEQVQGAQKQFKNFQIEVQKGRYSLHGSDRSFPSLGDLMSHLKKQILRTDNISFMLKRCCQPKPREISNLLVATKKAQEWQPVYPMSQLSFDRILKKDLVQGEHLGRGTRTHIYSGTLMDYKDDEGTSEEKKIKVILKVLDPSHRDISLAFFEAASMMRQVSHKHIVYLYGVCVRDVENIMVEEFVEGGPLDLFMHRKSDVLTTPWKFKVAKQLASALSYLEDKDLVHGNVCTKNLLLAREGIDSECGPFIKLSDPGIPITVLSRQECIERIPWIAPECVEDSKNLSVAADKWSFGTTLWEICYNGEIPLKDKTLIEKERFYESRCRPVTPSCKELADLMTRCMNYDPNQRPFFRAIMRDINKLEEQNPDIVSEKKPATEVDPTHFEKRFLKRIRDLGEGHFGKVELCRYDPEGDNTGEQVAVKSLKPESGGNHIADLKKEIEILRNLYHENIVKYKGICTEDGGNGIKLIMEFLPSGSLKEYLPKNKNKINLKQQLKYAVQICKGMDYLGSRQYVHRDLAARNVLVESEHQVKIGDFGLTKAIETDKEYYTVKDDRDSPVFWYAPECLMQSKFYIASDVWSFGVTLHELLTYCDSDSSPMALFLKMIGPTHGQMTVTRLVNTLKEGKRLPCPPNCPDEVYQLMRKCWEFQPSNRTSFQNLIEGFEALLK
Sequence of p38 (Q16539 whole entry): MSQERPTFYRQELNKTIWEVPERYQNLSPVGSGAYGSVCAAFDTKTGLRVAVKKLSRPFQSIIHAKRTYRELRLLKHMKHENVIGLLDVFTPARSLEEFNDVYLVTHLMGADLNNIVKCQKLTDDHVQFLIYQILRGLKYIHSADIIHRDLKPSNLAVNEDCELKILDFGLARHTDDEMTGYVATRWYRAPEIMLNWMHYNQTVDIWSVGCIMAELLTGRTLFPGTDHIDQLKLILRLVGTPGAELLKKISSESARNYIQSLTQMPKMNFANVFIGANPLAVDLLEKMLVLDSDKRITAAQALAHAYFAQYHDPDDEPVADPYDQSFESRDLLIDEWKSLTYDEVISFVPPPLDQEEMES

Row | Compound | EC50 [1, 9] [nM] | EC50 [2, 10] [nM] | CC50 [3, 11] [nM] | EC50 [4, 12] [nM] | EC50 [1, 13] [nM] | EC50 [2, 14] [nM] | CC50 [5, 15] [nM] | EC50 [4, 16] [nM] | also measured
1 | CCOc1cc2ncc(C#N)c(Nc3ccc(F)c(Cl)c3)c2cc1NC(=O)/C=C/CN(C)C [Pelitinib (EKB-569), Pelitinib] | 130 | 20 | 1700 | – | – | – | – | – | –
2 | CN1CCN(c2cccc(Nc3nc4c(-c5ccc(S(C)(=O)=O)cc5)cccn4n3)c2)CC1 [CEP-33779] | – | – | – | 360 | 220 | 240 | 10500 | – | –
3 | O=C(Nc1ccc(-c2ccnc(Nc3ccc(N4CCOCC4)cc3)n2)cc1)C1CCCN1 (stereo not drawn) [XL019] | – | – | 26700 | – | – | – | – | 510 | EC50 [1, 17]: 990 nM; EC50 [2, 18]: 940 nM
4 | CC(C)n1nc(-c2ccc3oc(N)nc3c2)c2c(N)ncnc21 [INK 128 (MLN0128)] | – | – | – | – | 120 | 40 | 5900 | – | –
5 | C=CC(=O)Nc1cccc(Oc2nc(Nc3ccc(N4CCN(C)CC4)cc3)ncc2Cl)c1 [WZ3146] | – | – | – | 10 | 680 | < 5 | – | – | CC50 [5]: 14000 nM
6 | COc1cc(Nc2ncc(F)c(Nc3ccc4c(n3)N(COP(=O)(O)O)C(=O)C(C)(C)O4)n2)cc(OC)c1OC [R788 (Fostamatinib) Disodium] | – | – | – | 60 | 390 | 160 | 7400 | – | –
7 | COc1cc(Nc2ncc(F)c(Nc3ccc4c(n3)N(COP(=O)(O)O)C(=O)C(C)(C)O4)n2)cc(OC)c1OC [Fostamatinib (R788), Fostamatinib] | 500 | 170 | 40000 | – | – | – | – | 340 | –
8 | O=C(c1ccc(Nc2nccc(-c3cc4ccccc4s3)n2)cc1)N1CCC(N2CCCC2)CC1 [IKK-16 (IKK Inhibitor VII)] | – | – | – | < 5 | < 5 | < 5 | 8900 | – | –
9 | N#CC[C@H](C1CCCC1)n1cc(-c2ncnc3[nH]ccc23)cn1 [Ruxolitinib (INCB018424), Ruxolitinib] | 70 | 30 | – | – | – | – | – | – | EC50 [4, 19]: 120 nM; CC50 ([3]; CC50): 100000 nM
10 | CCS(=O)(=O)N1CCN(c2ccc(Nc3ncc(C(N)=O)c(NC4CC4)n3)cc2)CC1 [Cerdulatinib (PRT062070, PRT2070), Cerdulatinib] | 50 | 20 | 3500 | – | – | – | – | < 5 | –
11 | C=CC(=O)Nc1ccc(CN2C(=O)N(c3cc(OC)cc(OC)c3)Cc3cnc(Nc4ccc(N5CCN(C)CC5)cc4)nc32)cc1 [FIIN-2] | – | – | – | 30 | 320 | 140 | 16700 | – | –
12 | Cc1ccc(-n2nc(C(C)(C)C)cc2NC(=O)Nc2ccc(OCCN3CCOCC3)c3ccccc23)cc1 [BIRB 796, Doramapimod] | – | – | – | – | – | – | – | 5220 | IC50 ([4]; Homo sapiens): 5200 nM; EC50 [1, 17]: 9200 nM; EC50 [2, 18]: 10000 nM; IC50 ([2]; Homo sapiens): 10000 nM; CC50 [3]: > 100000 nM
13 | Cc1cc(Nc2ncc3c(n2)N(C)C(=O)N(c2cc(NC(=O)c4cccc(C(F)(F)F)c4)ccc2C)C3)n(C)n1 [SC1] | – | – | – | < 5 | 10 | 40 | > 100000 | – | –
14 | Cc1ccc(NC(=O)c2ccc(CN3CC[C@H](N(C)C)C3)c(C(F)(F)F)c2)cc1Nc1nccc(-c2cncnc2)n1 [Bafetinib (INNO-406), Bafetinib] | – | – | 100000 | – | – | – | – | 590 | EC50 [1, 17]: 410 nM; EC50 [2, 18]: 860 nM
15 | O=C(Nc1cccc(Nc2ncc(Br)c(NCCc3cnc[nH]3)n2)c1)N1CCCC1 [BX-912] | – | – | – | 410 | 1050 | 360 | > 100000 | – | –
16 | Cc1c[nH]c2nc(Nc3ccc(N4CCN(C)CC4)c(F)c3)nc(-c3cccc(CC#N)c3)c12 [SGI-7079] | – | – | – | < 5 | < 5 | < 5 | 3850 | – | –
17 | C=CC(=O)Nc1cccc(Nc2nc(Nc3ccc(Oc4ccnc(C(=O)NC)c4)cc3)ncc2F)c1 [CNX-774] | – | – | – | 10 | 1460 | 160 | 15500 | – | –
18 | CC[C@@](C)(Nc1ccnc(-c2c[nH]c3ncccc23)n1)C(=O)NCC(F)(F)F [Decernotinib] | – | – | 50000 | – | – | – | – | 20 | EC50 [1, 17]: 100 nM; IC50 ([1]; Homo sapiens, U-937, read-out: IC50 IP-10): 100 nM; EC50 [2, 18]: 50 nM; IC50 [6]: 90 nM; JAK2 activity [6]: inhibited; IC50 [7]: 13 nM; JAK1 activity ([7]; cell-free kinase assay): inhibited
19 | CC(C)(C)Cn1c(N)nc2ccc(-c3[nH]c(C(C)(C)C)nc3-c3ccc(F)cc3)nc21 [LY2228820] | – | – | 50000 | – | – | – | – | < 5 | IC50 ([4]; Homo sapiens): 5 nM; EC50 [1, 17]: 3700 nM; EC50 [2, 18]: 2230 nM; IC50 ([2]; Homo sapiens): 2200 nM; IC50 [8]: 60 nM
20 | Cc1ccc(C(=O)Nc2ccc(CN3CCN(C)CC3)c(C(F)(F)F)c2)cc1C#Cc1cnc2[nH]ncc2c1 [GZD824] | < 5 | < 5 | 4800 | – | – | – | – | < 5 | –

Row | Compound | EC50 [1, 9] [nM] | EC50 [2, 10] [nM] | CC50 [3, 11] [nM] | EC50 [4, 12] [nM] | EC50 [1, 13] [nM] | EC50 [2, 14] [nM] | CC50 [5, 15] [nM] | EC50 [4, 16] [nM] | also measured
21 | CNC(=O)c1cc(Oc2ccc(NC(=O)Nc3ccc(Cl)c(C(F)(F)F)c3)c(F)c2)ccn1 [Regorafenib (BAY 73-4506), Regorafenib] | 1800 | 1710 | 20000 | – | – | – | – | 610 | –
22 | CCN(CC)CCNC(=O)c1c(C)[nH]c(/C=C2\C(=O)Nc3ccc(F)cc32)c1C [Sunitinib Malate] | 660 | 350 | 24900 | – | – | – | – | 50 | –
23 | COc1cc(Nc2ncc(F)c(Nc3ccc4c(n3)NC(=O)C(C)(C)O4)n2)cc(OC)c1OC [R406 (free base)] | – | – | – | 2750 | 700 | 1130 | > 100000 | – | –
24 | S-Ruxolitinib [S-Ruxolitinib (INCB018424)] | – | – | – | – | – | – | – | – | EC50 ([4]; read-out: EC50 IL-8): 30 nM; EC50 ([1]; read-out: EC50 IP-10): 80 nM; EC50 ([2]; read-out: EC50 MCP-1): 60 nM
25 | C=CC(=O)N1CCC(Oc2cc3c(Nc4ccc(Cl)c(Cl)c4F)ncnc3cc2OC)CC1 [Poziotinib (HM781-36B), Poziotinib] | 570 | 660 | 24100 | – | – | – | – | 340 | –
26 | C[C@@H]1CCN(C(=O)CC#N)C[C@@H]1N(C)c1ncnc2[nH]ccc12 [Tofacitinib (CP-690550) Citrate] | – | – | – | – | – | – | > 100000 | – | –
27 | Cn1c(=O)c(F)c(Nc2ccc(I)cc2F)c2c(=O)n(C[C@@H](O)CO)cnc21 [TAK-733] | 1400 | 40 | – | – | – | – | – | – | EC50 [4, 19]: < 5 nM; CC50 ([3]; CC50): 45000 nM
28 | CC(C)(C)c1cc(C=C(C#N)C#N)cc(C(C)(C)C)c1O [Tyrphostin 9] | – | – | – | 40 | 90 | 80 | 8260 | – | –
29 | N#CCNC(=O)c1ccc(-c2ccnc(Nc3ccc(N4CCOCC4)cc3)n2)cc1 [CYT387] | 480 | 30 | 5400 | – | – | – | – | 300 | –
30 | Cc1cc(Nc2cc(CN3CCOCC3)c3nc(C)c(Cc4ccc(Cl)cc4F)n3n2)n[nH]1 [LY2784544] | 10 | < 5 | 26000 | – | – | – | – | < 5 | –
31 | C[C@@H]1CCN(C(=O)CC#N)C[C@@H]1N(C)c1ncnc2[nH]ccc12 [Tofacitinib] | – | – | – | – | – | – | – | – | CC50 ([3]; CC50): > 100000 nM
32 | NC(=O)c1cnc2[nH]ccc2c1N[C@@H]1[C@@H]2CC3C[C@H]1C[C@@](O)(C3)C2 [Peficitinb (ASP015K, JNJ-54781532), Peficitinb] | – | – | – | – | 20 | 10 | 34700 | – | –
33 | NC(=O)Nc1sc(-c2ccc(F)cc2)cc1C(N)=O [TPCA-1] | – | – | – | 280 | 70 | 120 | 11000 | – | –
34 | CNS(=O)(=O)C[C@H]1CC[C@H](N(C)c2ncnc3[nH]ccc23)CC1 [Oclacitinib] | – | – | 50000 | – | – | – | – | 50 | EC50 [1, 17]: 180 nM; EC50 [2, 18]: 190 nM
35 | Cc1cc(Nc2nc(N[C@@H](C)c3ccc(F)cc3)c(C#N)cc2F)n[nH]1 [AZ 960] | – | – | 6000 | – | – | – | – | < 5 | EC50 [1, 17]: 10 nM; EC50 [2, 18]: < 5 nM
36 | CC#CC(=O)Nc1ccc2ncnc(Nc3cccc(Br)c3)c2c1 [CL-387785 (EKI-785)] | – | – | – | 420 | 410 | 640 | 7090 | – | –
37 | O=C(Nc1cc(C(F)(F)F)cc(C(F)(F)F)c1)c1cc(Cl)ccc1O [IMD 0354] | 80 | 60 | – | – | – | – | – | 20 | CC50 [3]: 1100 nM
38 | Cc1ccc(NC(=O)c2cccc(C(C)(C)C#N)c2)cc1Nc1ccc2ncn(C)c(=O)c2c1 [AZ 628] | – | – | – | 100 | 970 | 180 | > 100000 | – | –
39 | C[C@@H](Oc1ccc2[nH]nc(/C=C/c3cnn(CCO)c3)c2c1)c1c(Cl)cncc1Cl [LY2874455] | < 5 | < 5 | 3400 | – | – | – | – | < 5 | –
